# Data as given in paper PMC9097415, “Nanomolar EP4 receptor potency and expression of eicosanoid-related enzymes in normal appearing colonic mucosa from patients with colorectal neoplasia” (BMC Gastroenterology, 2022).
# Values joined by “and” are separate entries in the source; they are usually repeats but may differ in a detail not shown here. Equal entries are not always repeated.
# Experiments:
# EP1 receptor = target: T1, EP1 receptor (Homo sapiens, UniProt P34995); experiment: EP1 agonist stimulation of colonic mucosa biopsies in MUAS-chambers, SCC; format: cell-based; conditions: biopsies exposed to the selective EP1 agonist
# T1 construct: Four biopsies were mounted and oxygenated in MUAS-chambers after extraction; from tissue; host or cells: human colonic mucosa biopsies mounted in MUAS (modified Ussing) chambers
# T1 sequence (P34995 1-402): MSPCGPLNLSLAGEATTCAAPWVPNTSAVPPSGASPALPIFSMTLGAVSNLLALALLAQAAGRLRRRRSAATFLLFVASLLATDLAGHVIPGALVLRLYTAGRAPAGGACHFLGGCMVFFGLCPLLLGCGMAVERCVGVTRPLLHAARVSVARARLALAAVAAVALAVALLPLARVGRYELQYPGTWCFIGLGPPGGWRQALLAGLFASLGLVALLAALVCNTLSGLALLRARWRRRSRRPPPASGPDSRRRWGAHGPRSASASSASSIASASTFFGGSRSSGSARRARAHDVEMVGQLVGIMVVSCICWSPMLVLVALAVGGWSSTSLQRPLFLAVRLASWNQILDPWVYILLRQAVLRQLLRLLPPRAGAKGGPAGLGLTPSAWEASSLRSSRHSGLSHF
# Protocol: (§1) Four biopsies were mounted and oxygenated in MUAS-chambers after extraction as described by Larsen et al. generally within 45 min after extraction. Biopsies were bathed on both sides with 10 mL Ringer, supplemented with 5.5 mM D-glucose. Temperature was maintained at 37.2 °C by water jackets. An automated voltage-clamp device continuously recorded SCC and slope conductance.
# (§2) Experiments began after a stable basal SCC was obtained within 10 min after proper mounting. All experiments were initiated by addition of amiloride (20 µM, mucosal side) to inhibit electrogenic sodium absorption mediated through epithelial sodium channels and followed by theophylline (400 µM, serosal side) to inhibit phosphodiesterase-dependent cyclic adenosine monophosphate (cAMP) degradation. Finally, to eliminate endogenous prostaglandin synthesis, indomethacin (13 µM, serosal side) was added and incubated for 40 min.
# Biopsies from 47 patients were treated with PGE2 and selective EP receptor agonists to investigate receptor function, Table 1. A single agonist was added in increasing concentrations (1 nM to 5 µM, serosal side) to each MUAS-chamber. […]
# To assess agonists and receptors, data obtained from dose–response curves were analyzed with either a single-Michaelis–Menten model (srm) or a two-Michaelis–Menten receptor/site model (trm) using Sigmaplot 13.0 for Windows, Systat Software Inc. (USA/Canada). […]
# EP4 receptor [1] = target: T2, EP4 receptor (Homo sapiens, UniProt P35408); experiment: EP4 antagonist GW-X added before PGE2 dose-response in MUAS-chambers, agonist-based Cheng-Prusoff analysis; format: cell-based
# T2 construct: Four biopsies were mounted and oxygenated in MUAS-chambers after extraction; from tissue; host or cells: human colonic mucosa biopsies mounted in MUAS (modified Ussing) chambers
# T2 sequence (P35408 whole entry): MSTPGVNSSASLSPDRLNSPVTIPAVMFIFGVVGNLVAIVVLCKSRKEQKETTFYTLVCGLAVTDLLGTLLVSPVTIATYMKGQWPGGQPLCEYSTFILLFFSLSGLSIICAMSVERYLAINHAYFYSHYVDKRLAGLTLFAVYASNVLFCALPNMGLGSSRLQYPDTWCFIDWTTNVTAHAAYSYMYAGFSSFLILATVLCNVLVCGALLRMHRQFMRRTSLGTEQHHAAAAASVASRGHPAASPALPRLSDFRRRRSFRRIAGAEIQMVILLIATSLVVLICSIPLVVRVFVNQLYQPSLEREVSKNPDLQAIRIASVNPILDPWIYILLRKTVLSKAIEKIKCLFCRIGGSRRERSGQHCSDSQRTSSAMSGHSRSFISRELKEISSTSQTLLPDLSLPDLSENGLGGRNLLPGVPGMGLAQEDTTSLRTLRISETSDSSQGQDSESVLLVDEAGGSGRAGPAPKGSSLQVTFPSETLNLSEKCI
# Protocol: as §1, §2
# Biopsies from 26 patients were treated with selective EP receptor antagonists, Table 1. A combination of 3 antagonists was added to each MUAS chamber (serosal side), to single out and investigate the remaining non-inhibited EP receptor subtype. After antagonist incubation (45 min), cumulative doses of PGE2 were added (3 nM to 1 µM, serosal side). The EP4 receptor was also examined with another selective antagonist, GW627368X (GW-X, 5 µM, serosal side).
# (§3) To assess agonists and receptors, data obtained from dose–response curves were analyzed with either a single-Michaelis–Menten model (srm) or a two-Michaelis–Menten receptor/site model (trm) using Sigmaplot 13.0 for Windows, Systat Software Inc. (USA/Canada). Outcome data were maximum SCC responses (RMax) and EC50 of these analyses.
# From 2 agonist dose-response curves, one determined in the absence of a competitive antagonist, the other in its presence at only a single concentration, it is possible to calculate the antagonist apparent half inhibition dissociation constant at equilibrium, […]. […]
# EP receptors (EP1-4) = experiment: PGE2 stimulation of colonic mucosa biopsies in MUAS-chambers, short circuit current (SCC); format: cell-based, human
# Protocol: as §1, §2
# (§4) Biopsies from 47 patients were treated with PGE2 and selective EP receptor agonists to investigate receptor function, Table 1. A single agonist was added in increasing concentrations (1 nM to 5 µM, serosal side) to each MUAS-chamber. The final agonist concentration step was followed by the addition of 5 µM PGE2, to elicit a maximal PGE2-induced response.
# as §3
# EP4 receptor [2] = target: T2, EP4 receptor; experiment: EP4 agonist stimulation of colonic mucosa biopsies in MUAS-chambers, SCC; format: cell-based
# Protocol: as §1, §2, §4, §3
compound,measurement,setting,value
"CCCC[C@H](C)C[C@H](O)/C=C/[C@H]1[C@H](O)CC(=O)[C@@H]1CC(=O)C1CCC(C(=O)O)CC1 (some centres unmarked) [EP1 agonist, ONO-DI004]",Biopsies showing no increase in SCC,EP1 receptor,4 out of 22
"CCOc1c2c(c(OCC)c3ccccc13)C(=O)N(c1ccc(CC(=O)NS(=O)(=O)c3ccccc3)cc1)C2 [GW-X, GW627368X]",Mean EC50 ratio (agonist EC50 with / without antagonist),"EP4 receptor [1]; GW-X 5 µM, 4 protocols",approximately 25
same,IC50,"EP4 receptor [1]; against PGE2 (and TCS 2510), GW-X 5 µM, from EC50 ratios, 14 individual experiments",~0.21 µM and 0.21 µM
same,Type of inhibition of PGE2,"EP4 receptor [1]; low nanomolar PGE2 concentration range, rightward shift of the dose-response curve",competitive inhibition
"CCCCC[C@H](O)/C=C/[C@H]1[C@H](O)CC(=O)[C@@H]1C/C=C\CCCC(=O)O [PGE2, Prostaglandin E2]",PGE2 concentration at which SCC increased (as low as),"EP receptors (EP1-4); both patient groups (CRN and CTRL), serosal side",≤ 1 nM
same,EP4 receptor potency of PGE2,EP receptors (EP1-4); normal appearing colonic mucosa,low nanomolar range
same,RMax rank among agonists,EP receptors (EP1-4); srm and trm,highest
same,Average separation factor between EC50s of high and low affinity receptors,EP receptors (EP1-4); two receptor model (trm),64
TCS 2510 [EP4 agonist],RMax as share of the PGE2 response,EP4 receptor [2]; CRN patients,~75%
same,RMax as share of the PGE2 response,EP4 receptor [2]; CTRL patients,approximately 50%
same,Sensitivity / potency for SCC increase,EP4 receptor [2]; similar sensitivity to PGE2,high potency in the low nanomolar range
same,EC50 in CRN patients compared to CTRLs,EP4 receptor [2]; single receptor model (srm),higher
same,Average separation factor between EC50s of high and low affinity receptors,EP4 receptor [2]; two receptor model (trm),15
same,RMax of low affinity receptors in CRN patients,EP4 receptor [2]; two receptor model (trm),significantly increased
